Patent US20040023994A1 (priority 2002, published 2004)
Like-named read-outs stand apart in the source and are kept apart here.

Tests used:
HL-60(TB) = settings: cited from earlier work
SK-MEL-2 [1] = settings: SK-MEL-2, Melanoma, NCI database, cited from earlier work
K-562 = settings: K-562, Leukemia, NCI database, cited from earlier work
ACHN = settings: Renal, NCI database, cited from earlier work
M14 [2] = settings: M14, Melanoma, NCI database, cited from earlier work
CCRF-CEM = settings: Leukemia, NCI database, cited from earlier work
NCI-H23 = settings: NCI-H23, Non-Small Cell Lung, NCI database, cited from earlier work
TK-10 = settings: TK-10, Renal, NCI database, cited from earlier work
UO-31 [3] = settings: UO-31, Renal, NCI database, cited from earlier work
CAKI-1 [4] = settings: CAKI-1, Renal, NCI database, cited from earlier work
[5] = cited from earlier work
UACC-62 = settings: UACC-62, Melanoma, NCI database, cited from earlier work
HOP-92 = settings: HOP-92, Non-Small Cell Lung, NCI database, cited from earlier work
UACC-257 = settings: UACC-257, Melanoma, NCI database, cited from earlier work
MALME-3M = settings: Melanoma, NCI database, cited from earlier work
786-0 = settings: 786-0, Renal, 48 h
SK-MEL-2 [6] = settings: SK-MEL-2, Melanoma, 48 h
OVCAR-5 = settings: OVCAR-5, Ovarian, 48 h
IGR-OV1 = settings: IGR-OV1, Ovarian, 48 h
SW-620 = settings: SW-620, Colon, 48 h
OVCAR-8 = settings: OVCAR-8, Ovarian, 48 h
M14 [7] = settings: M14, Melanoma, 48 h
UO-31 [8] = settings: UO-31, Renal, 48 h
SNB-75 = settings: SNB-75, CNS, 48 h
HCT-116 = settings: HCT-116, Colon, 48 h
CAKI-1 [9] = settings: CAKI-1, Renal, 48 h
[10] = read-out: LC50 (the source's name)

## Sc1ncnc2nc[nH]c12 [6-MP, 6-mercaptopurine]
HL-60(TB); Leukemia, NCI database
  GI50: 2.3 µM
  TGI: >100 µM
HL-60(TB); read-out: LC50, Leukemia, NCI database
  CC50: > 100 µM
SK-MEL-2 [1]
  GI50: 5.81 µM
  TGI: >100 µM
SK-MEL-2 [1]; [10]
  CC50: > 100 µM
K-562
  GI50: 0.35 µM
  TGI: >100 µM
K-562; [10]
  CC50: > 100 µM
ACHN; [10]
  CC50: > 100 µM
ACHN
  GI50: 6.3 µM
  TGI: >100 µM
M14 [2]
  GI50: 0.67 µM
  TGI: >100 µM
M14 [2]; [10]
  CC50: > 100 µM
CCRF-CEM; [10]
  CC50: > 100 µM
CCRF-CEM
  GI50: 1.22 µM
  TGI: >100 µM
NCI-H23
  GI50: 3.74 µM
  TGI: >100 µM
NCI-H23; [10]
  CC50: > 100 µM
TK-10
  GI50: 1.83 µM
  TGI: >100 µM
TK-10; [10]
  CC50: > 100 µM
UO-31 [3]
  GI50: 6.52 µM
  TGI: >100 µM
UO-31 [3]; [10]
  CC50: > 100 µM
CAKI-1 [4]
  GI50: 2.36 µM
  TGI: >100 µM
CAKI-1 [4]; [10]
  CC50: > 100 µM
[5]
  dose absorbed after oral administration: ≤ 37%
UACC-62
  GI50: 1.63 µM
  TGI: >100 µM
UACC-62; [10]
  CC50: > 100 µM
HOP-92
  GI50: 2.6 µM
  TGI: >100 µM
HOP-92; [10]
  CC50: > 100 µM
UACC-257
  GI50: 14.2 µM
  TGI: >100 µM
UACC-257; [10]
  CC50: > 100 µM
MALME-3M; [10]
  CC50: > 100 µM
MALME-3M
  GI50: 4.28 µM
  TGI: >100 µM

## CC(=O)C=CSc1nc(N)nc2nc[nH]c12 [trans-AVTG, 6-(2-acetylvinylthio) guanine]
786-0
  GI50: 0.98 µM
  TGI: 21.9 µM
786-0; read-out: LC50
  CC50: > 100 µM
SK-MEL-2 [6]
  GI50: 1.02 µM
  TGI: 15.5 µM
SK-MEL-2 [6]; read-out: LC50
  CC50: 98.7 µM
NCI/ADR-RES; Breast, 48 h
  GI50: 0.35 µM
  TGI: 7.40 µM
NCI/ADR-RES; read-out: LC50, Breast, 48 h
  CC50: > 100 µM
OVCAR-5
  GI50: 0.54 µM
  TGI: 6.04 µM
OVCAR-5; read-out: LC50
  CC50: 57.7 µM
IGR-OV1
  GI50: 0.03 µM
  TGI: 0.08 µM
IGR-OV1; read-out: LC50
  CC50: 7.86 µM
SW-620
  GI50: 1.13 µM
  TGI: 6.50 µM
SW-620; read-out: LC50
  CC50: > 100 µM
OVCAR-8
  GI50: 0.55 µM
  TGI: >100 µM
OVCAR-8; read-out: LC50
  CC50: > 100 µM
M14 [7]
  GI50: 0.45 µM
  TGI: 12.0 µM
M14 [7]; read-out: LC50
  CC50: 53.5 µM
UO-31 [8]
  GI50: 0.62 µM
  TGI: 11.9 µM
UO-31 [8]; read-out: LC50
  CC50: 39.1 µM
SNB-75
  GI50: 9.17 µM
  TGI: >100 µM
SNB-75; read-out: LC50
  CC50: > 100 µM
HCT-116
  GI50: 0.67 µM
  TGI: 3.01 µM
HCT-116; read-out: LC50
  CC50: 14.7 µM
CAKI-1 [9]
  GI50: 0.16 µM
  TGI: 0.51 µM
CAKI-1 [9]; read-out: LC50
  CC50: 13.7 µM
